This experiment is described as follows: Inhibition of HCV genotype 1b NS3/4A protease. Details: species or system Hepatitis C virus subtype 1b.

One may read the EC50 as the concentration at which the effect is half-maximal. A low value points to a more potent agent. `CC[C@@H]1[C@@H]2CN(C(=O)[C@H](C(C)(C)C)NC(=O)O[C@@H]3C[C@H]3CCCCC(F)(F)c3nc4ccc(OC)cc4nc3O2)[C@@H]1C(=O)N[C@]1(C(=O)NS(=O)(=O)C2(C)CC2)C[C@H]1C(F)F` yielded a half-maximal effective concentration (EC50) of 3.3 nM.

(Values after ChEMBL document CHEMBL4373658, “Scaffold hybridization strategy towards potent hydroxamate-based inhibitors of Flaviviridae viruses and Trypanosoma species” (Medchemcomm, 2019).)
